Source: patent US12029738B2, “Antiproliferative compounds and methods of use thereof” (Celgene Corporation, priority 2017, dated 2024)

Tested on: lenalidomide-resistant multiple myeloma cells (H929-1051)
Assay: Apoptosis induction with dexamethasone combinations (Caspase-Glo 3/7, 72 h)
Type: cell-based, human
Description: Methods: Dexamethasone was assessed for its ability to induce apoptosis as a single agent or in combination with Compound 2, pomalidomide, or lenalidomide. Induction of apoptosis was measured using Caspase-Glo in lenalidomide-resistant multiple myeloma cells (H929-1051). Dexamethasone was dispensed at 20 concentrations, using an acoustic dispenser. The test articles were added as single concentrations onto the dexamethasone wells with a Hewlett-Packard D300 Digital Dispenser. The final concentrations of compounds for the assay were: dexamethasone (0.8 μM to 0.00002 μM), lenalidomide (1 μM), pomalidomide (0.1 μM), and Compound 2 (0.001, 0.01, or 0.1 μM). Cells were dispensed into the assay plates with a Multidrop dispenser and duplicate plates were made for the assay. The apoptosis read was taken at 72 h post-compound treatment using a Caspase-Glo 3/7 and CellTiter-Glo Assays. The Caspase-Glo 3/7 luminescence was normalized to the CellTiter-Glo luminescence to account for differences in cell number. The fold change of the treated sample was calculated as follows: normalized caspase of treated sample/average of normalized DMSO control.

N#Cc1ccc(N2CCN(Cc3ccc(COc4cccc5c4CN([C@H]4CCC(=O)NC4=O)C5=O)cc3)CC2)c(F)c1 [Compound 2, (S)-4-(4-(4-(((2-(2,6-dioxopiperidin-3-yl)-1-oxoisoindolin-4-yl)oxy)methyl)benzyl)piperazin-1-yl)-3-fluorobenzonitrile]
combination effect with dexamethasone on cell viability and apoptosis (Compound 2 0.001, 0.01, 0.1 μM): synergized with dexamethasone | shift of the onset of dexamethasone activity in the presence of Compound 2 (caspase-3 induction): 1 log
